Reference: patent US20170050966A1, “INHIBITING THE TRANSIENT RECEPTOR POTENTIAL A1 ION CHANNEL” (HYDRA BIOSCIENCES, INC., priority 2014, published 2017)
Converted amounts (≈) assume the structure as drawn. Where two headings read alike, the source gives them in different places. Values belong to the compound of their own block, whether it stands above or below them.

Experiments:
CYP3A4 = CYP3A4 (Homo sapiens, UniProt P08684); test: P450 Cyp-inhibition luminescent assay; format: biochemical
Description: (§1) The ability of Compound 2 to inhibit human CYP450 enzymes was evaluated. Compound 1 and Compound 2 were tested in standard P450 Cyp-inhibition luminescent assay.

CYP2C9 = CYP2C9 (Homo sapiens, UniProt P11712); test: P450 Cyp-inhibition luminescent assay; format: biochemical
Chain of CYP2C9 (P11712 whole entry): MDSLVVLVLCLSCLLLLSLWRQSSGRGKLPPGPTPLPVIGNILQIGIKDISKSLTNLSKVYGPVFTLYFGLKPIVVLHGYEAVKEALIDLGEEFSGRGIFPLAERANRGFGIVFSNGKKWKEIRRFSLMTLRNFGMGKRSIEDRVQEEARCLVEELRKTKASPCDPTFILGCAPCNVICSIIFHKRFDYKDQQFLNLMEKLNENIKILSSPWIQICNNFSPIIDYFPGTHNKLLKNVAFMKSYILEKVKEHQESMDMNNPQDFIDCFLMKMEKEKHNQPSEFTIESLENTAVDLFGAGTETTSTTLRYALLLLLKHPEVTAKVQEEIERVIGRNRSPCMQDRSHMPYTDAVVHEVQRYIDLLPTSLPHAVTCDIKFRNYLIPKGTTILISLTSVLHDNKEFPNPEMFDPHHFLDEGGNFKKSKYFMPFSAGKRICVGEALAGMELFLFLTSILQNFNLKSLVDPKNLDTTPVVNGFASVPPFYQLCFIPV
Description: as §1

CYP1A2 = target: T1, CYP1A2 (Homo sapiens, UniProt P05177); test: P450 Cyp-inhibition luminescent assay; format: biochemical
T1 sequence (P05177 1-516): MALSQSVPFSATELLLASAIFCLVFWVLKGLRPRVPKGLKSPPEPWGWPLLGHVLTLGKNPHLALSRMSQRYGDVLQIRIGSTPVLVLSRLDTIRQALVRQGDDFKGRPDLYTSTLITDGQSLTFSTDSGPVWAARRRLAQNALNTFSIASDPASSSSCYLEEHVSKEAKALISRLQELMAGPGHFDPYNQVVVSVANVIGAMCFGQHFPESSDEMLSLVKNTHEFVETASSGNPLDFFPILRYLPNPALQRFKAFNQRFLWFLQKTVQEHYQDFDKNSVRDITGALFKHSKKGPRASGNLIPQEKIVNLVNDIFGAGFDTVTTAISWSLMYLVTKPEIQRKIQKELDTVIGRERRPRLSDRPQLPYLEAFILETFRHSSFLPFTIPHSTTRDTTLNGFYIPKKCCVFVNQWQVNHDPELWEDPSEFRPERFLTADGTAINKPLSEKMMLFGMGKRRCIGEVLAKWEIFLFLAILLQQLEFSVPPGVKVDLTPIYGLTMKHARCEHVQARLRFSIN
Description: as §1

CYP2C19 = CYP2C19 (Homo sapiens, UniProt P33261); test: P450 Cyp-inhibition luminescent assay; format: biochemical
Chain of CYP2C19 (P33261 whole entry): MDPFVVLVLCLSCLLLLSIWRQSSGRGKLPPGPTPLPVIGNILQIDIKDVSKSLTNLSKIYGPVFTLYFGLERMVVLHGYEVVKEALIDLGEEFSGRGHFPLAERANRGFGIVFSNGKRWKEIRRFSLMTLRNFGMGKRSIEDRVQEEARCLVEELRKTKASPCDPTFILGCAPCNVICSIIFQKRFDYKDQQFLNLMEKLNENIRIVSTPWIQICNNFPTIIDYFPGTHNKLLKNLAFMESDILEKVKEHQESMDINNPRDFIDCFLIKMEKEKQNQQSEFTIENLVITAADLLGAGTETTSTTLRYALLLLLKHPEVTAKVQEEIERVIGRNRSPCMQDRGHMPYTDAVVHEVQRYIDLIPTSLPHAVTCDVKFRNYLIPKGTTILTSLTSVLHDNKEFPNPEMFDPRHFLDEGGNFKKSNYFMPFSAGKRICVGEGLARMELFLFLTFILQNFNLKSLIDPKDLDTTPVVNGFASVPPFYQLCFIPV
Description: as §1

CYP2D6 = CYP2D6 (Homo sapiens, UniProt P10635); test: P450 Cyp-inhibition luminescent assay; format: biochemical
Chain of CYP2D6 (P10635 whole entry): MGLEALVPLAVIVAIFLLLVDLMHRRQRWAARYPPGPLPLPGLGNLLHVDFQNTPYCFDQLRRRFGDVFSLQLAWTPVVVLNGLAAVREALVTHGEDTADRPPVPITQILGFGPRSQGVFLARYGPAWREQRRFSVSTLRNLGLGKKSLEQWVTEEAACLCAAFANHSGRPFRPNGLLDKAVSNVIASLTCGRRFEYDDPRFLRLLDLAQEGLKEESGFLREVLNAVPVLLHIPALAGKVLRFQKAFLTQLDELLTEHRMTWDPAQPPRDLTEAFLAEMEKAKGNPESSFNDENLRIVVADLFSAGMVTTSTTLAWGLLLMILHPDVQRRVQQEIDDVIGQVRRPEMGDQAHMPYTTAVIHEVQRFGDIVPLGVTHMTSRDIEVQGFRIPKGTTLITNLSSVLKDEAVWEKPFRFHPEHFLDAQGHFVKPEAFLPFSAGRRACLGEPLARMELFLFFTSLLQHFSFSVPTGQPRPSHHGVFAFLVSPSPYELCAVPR
Description: as §1

[1] = Kinetic solubility in buffered solutions; format: physicochemical; details: aqueous buffer, kinetic from dmso stock, 24 hours ambient
Description: The solubilities of the compounds of Formula (I) were tested using the procedure outlined in Kerns, E. H., J Pharm Sci (2001) 90:1838-1858, incorporated herein by reference and described below. Data for solubility was obtained by this method for compounds of Formula (I) and included in Table 3. The chromatographic data was performed by HPLC using an Xbridge Shield RP18 column with the following column dimensions: 4.6×30 mm, 3.5 μm. The mobile phase consisted of deionized water (MPA) with trifluoroacetic acid added in at 0.1% (v/v) (MPC) and HPLC-grade acetonitrile (MPB). The mobile phase flow rate was 2.5 mL/min with the column and sampling operating at ambient temperature. UV detection was set to 280 nm.
Samples for analysis of the compounds of Formula (I) were prepared at a % v/v=1/19 (i.e., 10 μL of the stock solution into 190 μL of buffer) by spiking stock solutions of the compounds of Formula (I) into buffered solutions. Three buffered solution systems were prepared: pH 4.0 prepared from 50 mM sodium acetate in a 5% dextrose in water solution, pH 7.4 prepared from 75 mM sodium phosphate in a 1:1 ratio of sterilized water for injection to a 5% dextrose in water solution, and pH 9.0 prepared from 50 mM sodium bicarbonate in a 1:2 ratio of sterilized water for injection to a 5% dextrose in water solution. The samples were incubated on a microplate shaker at 300 rpm for 24 hours at ambient temperature. Following incubation, the samples were centrifuged for five minutes at 13 k rpm at ambient temperature. The resulting supernantant was extracted for HPLC analysis.

[2] = Oral bioavailability of solutions in non-fasted rats; details: rat, in vivo, oral solution, read-out: Rat % F
Description: Early bioavailability studies in rat were conducted with solutions of the compounds of the invention. Compounds were delivered via oral administration as a solution in an appropriate excipient. Example formulations include, but are not limited to: 4% DMSO, 10% Solutol HS-15, and 86% water or 4% DMSO, 5% Tween, 25% Cremophor EL. Target concentrations were typically 1 mg/mL, and administered via oral gavage to non-fasted rats. The absolute bioavailability is the dose-corrected area under the curve (AUC) non-intravenous divided by the dose corrected AUC intravenous. The formula for calculating F for a drug administered by the oral route (PO) is given below:
% F=AUC PO×Dose IV/AUC IV×Dose PO

[3] = system: CFA-induced cold hyperalgesia model in the rat; test: CFA-induced cold hypersensitivity, paw withdrawal latency; format: in vivo; details: for Pre-RX PWL / Pre-Rx PWL: before dosing
Description: Embodiments of the invention may be efficacious in the treatment of inflammatory pain. Compound 2 tested by the CFA-induced pain test method. […]
Briefly, the hind paw is sensitized to cold temperature (allodynic), by administering 0.1 mL of Complete Freund's Adjuvant (CFA) is administered to the right hind paw. Three days later, the time taken for the animal to lift its CFA-injected paw is recorded compared to its un-injected normal left hind paw. […] To avoid tissue damage the maximum cut-off time is 5 minutes. Animals that are allodynic (average PWL to the first three pain behaviors <150 seconds for the CFA-injected hind paw: ˜≧50% difference between the normal and CFA-injected paw) are included in the study and subsequently randomized across treatment groups. The following day, the animals are dosed under blinded conditions. Following the 1-2 hour pre-treatment time, the post-dose PWL readings are again taken. The efficacy of the drug treatment is assessed by comparing the PWL in the drug treatment animals to those animals that receive the vehicle.
Compound 4 was also tested using the methods disclosed.
In a further study, compounds of the invention were tested for efficacy at low doses for the treatment of inflammatory pain. Using the methods disclosed in above, Compound 2 was dosed at ranges of 0.1 to 1 mg/kg PO. The positive comparator TRPA1 antagonist Compound A was also tested at a dose of 150 mg/kg IP. […] Oral drug delivery was accomplished using a 20-gauge 1½″ oral gavage needle and a 5 cc syringe. Fed rats received a single oral gavage of Compound 2 at 0.03, 0.1, 0.3, or 1 mg/kg or Vehicle, 2 hours prior to testing

[4] = sodium acetate buffer, pH 4.0, 50 mM sodium acetate, read-out: pH 4.0 solubility
[5] = sodium bicarbonate buffer, pH 9.0, 50 mM sodium bicarbonate, read-out: pH 9.0 solubility
[6] = sodium phosphate buffer, pH 7.4, 75 mM sodium phosphate, read-out: pH 7.4 solubility
[7] = 1 mg/kg PO, suspension in 0.5% methylcellulose

Chain of CYP3A4 (P08684 whole entry): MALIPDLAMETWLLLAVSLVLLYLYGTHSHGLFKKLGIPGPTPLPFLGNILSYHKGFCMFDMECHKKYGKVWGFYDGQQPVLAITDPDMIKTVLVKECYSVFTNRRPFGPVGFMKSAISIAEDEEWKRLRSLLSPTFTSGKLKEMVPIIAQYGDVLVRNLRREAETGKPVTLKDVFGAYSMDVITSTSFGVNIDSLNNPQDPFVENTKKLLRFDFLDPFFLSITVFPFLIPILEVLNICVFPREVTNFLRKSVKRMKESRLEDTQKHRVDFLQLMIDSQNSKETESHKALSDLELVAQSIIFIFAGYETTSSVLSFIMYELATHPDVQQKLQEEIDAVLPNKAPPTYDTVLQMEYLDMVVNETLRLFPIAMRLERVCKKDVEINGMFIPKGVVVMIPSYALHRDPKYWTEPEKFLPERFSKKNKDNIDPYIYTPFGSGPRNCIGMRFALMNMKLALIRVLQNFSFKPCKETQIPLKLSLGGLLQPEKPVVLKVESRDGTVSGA

CYP 3A4: % Inhibition (CYP3A4): 26.9%
CYP 2C9: % Inhibition (CYP2C9): 71.4%
CYP 1A2: % Inhibition (CYP1A2): 4.2%
CYP 2C19: % Inhibition (CYP2C19): 45.9%
CYP 2D6: % Inhibition (CYP2D6): 9%
solubility kinetic at 24 h [1, 4]: 4 µg/mL (≈ 7.93 µM)
solubility kinetic at 24 h [1, 5]: 2 µg/mL (≈ 3.96 µM)
solubility kinetic at 24 h [1, 6]: 3 µg/mL (≈ 5.95 µM)
bioavailability [2]: 46%
SMILES: C[C@@H](C(=O)Nc1ccnc(-c2cnc(N3CCCC3(C)C)nc2)n1)n1cnc2c1c(=O)n(C)c(=O)n2C [Compound 1, (S)-2-(1,3-dimethyl-2,6-dioxo-2,3-dihydro-1H-purin-7(6H)-yl)-N-(2′-(2,2-dimethylpyrrolidin-1-yl)-[2,5′-bipyrimidin]-4-yl)propanamide]

CYP 3A4: % Inhibition (CYP3A4): 2.7%
CYP 2C9: % Inhibition (CYP2C9): 39.6%
CYP 1A2: % Inhibition (CYP1A2): 0.299%
CYP 2C19: % Inhibition (CYP2C19): 29.1%
CYP 2D6: % Inhibition (CYP2D6): 6.3%
solubility kinetic at 24 h [1, 4]: 85 µg/mL (≈ 156 µM)
solubility kinetic at 24 h [1, 5]: 69 µg/mL (≈ 127 µM)
solubility kinetic at 24 h [1, 6]: 71 µg/mL (≈ 130 µM)
bioavailability [2]: 100%
SMILES: C[C@@H](C(=O)Nc1ccnc(-c2cnc(N3CCC[C@H]3C(F)(F)F)nc2)n1)n1cnc2c1c(=O)n(C)c(=O)n2C [Compound 2, (S)-2-(1,3-dimethyl-2,6-dioxo-2,3-dihydro-1H-purin-7(6H)-yl)-N-(2′-((S)-2-(trifluoromethyl)pyrrolidin-1-yl)-[2,5′-bipyrimidin]-4-yl)propanamide]
reversal of CFA-induced cold hypersensitivity ([3]; 0.03 mg/kg PO): did not exert a statistically significant effect
PWL Change ([3]; 0.03 mpk PO, 2 hours prior to testing): 14.8 s
reversal of CFA-induced cold hypersensitivity ([3]; 0.1, 0.3, and 1 mg/kg PO): significant reversal of CFA-induced cold hypersensitivity
PWL Change ([3]; 0.1 mpk PO, 2 hours prior to testing): 43.1 s
Post RX PWL ([3]; 0.3 mpk PO): 197.7 s
Pre-RX PWL ([3]; 0.3 mpk PO group): 104.0 s
PWL Change ([3]; 0.3 mpk PO, 2 hours prior to testing): 74.1 s
Post RX PWL ([3]; 1 mpk PO): 243.0 s
Pre-RX PWL ([3]; 1 mpk PO group): 103.7 s
PWL Change ([3]; 1 mpk PO, 2 hours prior to testing): 104.8 s
Post RX PWL ([3]; 3 mpk PO): 249.6 s
Pre-RX PWL ([3]; 3 mpk PO group): 103.9 s
Post RX PWL ([3]; 10 mpk PO): 237.3 s
Pre-RX PWL ([3]; 10 mpk PO group): 104.0 s
effect on cold hypersensitivity ([3]; oral doses of 0.3 to 10 mg/kg): attenuated cold hypersensitivity

bioavailability [2]: 100%
SMILES: C[C@@H](C(=O)Nc1ccnc(-c2cnc(N3CCC[C@@H]3C(F)(F)F)nc2)n1)n1cnc2c1c(=O)n(C)c(=O)n2C [Compound 4, (S)-2-(1,3-dimethyl-2,6-dioxo-2,3-dihydro-1H-purin-7(6H)-yl)-N-(2′-((R)-2-(trifluoromethyl)pyrrolidin-1-yl)-[2,5′-bipyrimidin]-4-yl)propanamide]
Pre-Rx PWL ([3]; 1 mg/kg PO group, suspension in 0.5% methylcellulose): 101.7 s
PWL Change [3, 7]: 148.6 s
Post-Rx PWL [3, 7]: 250.3 s
Pre-Rx PWL ([3]; 3 mg/kg PO group, suspension): 101.1 s
PWL Change ([3]; 3 mg/kg PO, suspension): 140.9 s
Post-Rx PWL ([3]; 3 mg/kg PO, suspension): 242.1 s
Pre-Rx PWL ([3]; 10 mg/kg PO group, suspension): 101.5 s
PWL Change ([3]; 10 mg/kg PO, suspension): 132.6 s
Post-Rx PWL ([3]; 10 mg/kg PO, suspension): 234.1 s
